Here are results for six molecules from patent US20090047243A1, “COMBINATIONS FOR THE TREATMENT OF B-CELL PROLIFERATIVE DISORDERS” (priority 2007, published 2009).

The subject of assay [1] is RPMI-8226, H929, MM.1S and MM.1R MM cell lines. The assay can be described thus: Anti-proliferation assay, statements across MM cell lines. The conditions noted are these: RPMI-8226, H929, MM.1S and MM.1R MM cell lines. Type of assay: cell-based, human. How it is done:
The MM.1S, MM.1R, H929, MOLP-8, EJM, INA-6, ANBL6, KSM-12-PE, OPM2, and RPMI-8226 multiple myeloma cell lines, as well as the Burkitt's lymphoma cell line GA-10 and the non-Hodgkin's lymphoma cell lines Farage, SU-DHL6, and Karpas 422 were cultured at 37° C. and 5% CO2 in RPMI-1640 media supplemented with 10% FBS. ANBL6 and INA-6 culture media was also supplemented with 10 ng/ml IL-6. The OCI-ly10 cell line was cultured using RPMI-1640 media supplemented with 20% human serum. MM.1S, MM.1R, OCI-ly10, Karpas 422, and SU-DHL6 cells were provided by the Dana Farber Cancer Institute. H929, RPMI-8226, GA-10, and Farage cells were from ATCC (Cat #'s CCL-155, CRL-9068, CRL-2392 and CRL-2630 respectively). MOLP-8, EJM, KSM-12-PE, and OPM2 were from DSMZ. The ANBL6 and INA-6 cell lines were provided by the M. D. Anderson Cancer Research Center.
Compounds were prepared in DMSO at 1000× the highest desired concentration. Master plates were generated consisting of serially diluted compounds in 2- or 3-fold dilutions in 384-well format. For single agent dose response curves, the master plates consisted of 9 individual compounds at 12 concentrations in 2- or 3-fold dilutions. For combination matrices, master plates consisted of individual compounds at 6 or 9 concentrations at 2- or 3-fold dilutions.
Cells were added to 384-well plates 24 hours prior to compound addition such that each well contained 2000 cells in 35 μL of media. Master plates were diluted 100× (1 μL into 100 μL) into 384-well dilution plates containing only cell culture media. 4.5 μL from each dilution plate was added to each assay plate for a final dilution of 1000×. To obtain combination data, two master plates were diluted into the assay plates. Following compound addition, assay plates were kept at 37° C. and 5% CO2 for 72 hours. Thirty microliters of ATPLite (Perkin Elmer) at room temperature was then added to each well. Final amount of ATP was quantified within 30 minutes using ATPLite luminescent read-out on an Envision 2103 Multilabel Reader (Perkin Elmer). Measurements were taken at the top of the well using a luminescence aperture and a read time of 0.1 seconds per well.
The Loewe additivity model was used to quantify combination effects. Combinations were ranked initially by Additivity Excess Volume, which is defined as ADD Volume=ΣCX, CY (Idata−ILoewe). where ILoewe(CX, CY) is the inhibition that satisfies (CX/ECX)+(CY/ECY)=1, and ECX,Y are the effective concentrations at ILoewe for the single agent curves. A “Synergy Score” was also used, where the Synergy Score S=log fX log fY ΣIdata(Idata−ILoewe), summed over all non-single-agent concentration pairs, and where log fX,Y is the natural logarithm of the dilution factors used for each single agent. This effectively calculates a volume between the measured and Loewe additive response surfaces, weighted towards high inhibition and corrected for varying dilution factors. An uncertainty σS was calculated for each synergy score, based on the measured errors for the Idata values and standard error propagation.

The test system of assay [2] is patient CLL cells. The assay can be described thus: Apoptosis assay (Hoechst 33342, flow cytometry, 48 h). The class given is cell-based, human. Set-up: unit not given here. From the text: Blood samples were obtained in heparinized tubes with IRB-approved consent from flow cytometry-confirmed B-CLL patients that were either untreated or for whom at least 1 month had elapsed since chemotherapy. Patients with active infections or other serious medical conditions were not included in this study. Patients with white blood cell counts of less than 15,000/μl by automated analysis were excluded from this study. Whole blood was layered on Ficoll-Hystopaque (Sigma), and peripheral blood mononuclear cells (PBMC) isolated after centrification. […] One million cells were stained with anti-CD5-PE and anti-CD19-PE-Cy5 (Becton Dickenson, Franklin Lakes N.J.). The percentage of B-CLL cells was defined as the percentage of cells doubly expressing CD5 and CDl9, as determined by flow cytometry. […] Compound master plates were diluted 1:50 into complete media to create working compound dilutions. Compound crosses were then created by diluting two working dilution plates 1:10 into each plate of cells. […] Hoechst 33342 (Molecular Probes, Eugene Oreg.) at a final concentration of 0.25 μg/1 mL was added to each well, and the cells incubated at 37° C. for an additional ten minutes before being placed on ice until analysis. Plates were then analyzed on a LSR-II flow cytometer (Becton Dickenson, Franklin Lakes, N.J.) equipped with the High Throughput Sampling (HTS) option in high throughput mode. […] The apoptotic fraction was calculated using FlowJo software (Tree Star Inc., Ashland, Oreg.) after excluding debris by a FSC/SSC gate and subsequently gating for cells that accumulate the Hoechst dye.

The subject of assay [3] is H929 multiple myeloma cell line. The assay can be described thus: Anti-proliferation assay (ATPLite, 72 h). Type of assay: cell-based, human. Also on record: key: S = lnfX·lnfY·ΣIdata(Idata−ILoewe), volume over Loewe additivity. In short, it runs like this: (§1)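 Cells treated 72 h with compounds in 2- or 3-fold serial dilutions (12 concentrations for single agents; 6×6 matrix for combinations); INA-6 medium supplemented with 10 ng/ml IL-6. Viability by ATPLite luminescence; % inhibition vs untreated wells, curves fitted, combinations assessed by Loewe additivity and Synergy Score.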

Assay [4] deals with RPMI-8226 multiple myeloma cell line. Briefly: Anti-proliferation assay (ATPLite, 72 h). Type of assay: cell-based, human. Set-up: key: S = lnfX·lnfY·ΣIdata(Idata−ILoewe), volume over Loewe additivity. The essentials:
as §1

Assay [5] concerns human multiple myeloma cells (MM.1S). The assay can be described thus: Anti-proliferation assay (ATPLite, 72 h). Type of assay: cell-based. Set-up: key to synergy score / synergy (score), PDEi × HE-NECA: S = lnfX·lnfY·ΣIdata(Idata−ILoewe), volume over Loewe additivity. The essentials:
as §1
In general terms: Cellular ATP, detected with luciferase, serves as a proxy for viable cell number.

The test system of assay [6] is human multiple myeloma cells (MM.1R). Briefly: Anti-proliferation assay (ATPLite, 72 h). The class given is cell-based. Also on record: key: S = lnfX·lnfY·ΣIdata(Idata−ILoewe), volume over Loewe additivity. The essentials: as §1
Assay [7] relates to phosphodiesterase (PDE) types. Conditions: PDE type(s) in brackets after the name; cited from earlier work.

With `OC[C@H]1O[C@H](n2cnc3c(NC4CC5CCC4C5)ncnc32)[C@H](O)[C@@H]1O` (stereo partly drawn) [(S)-ENBA, S-N^6-(2-endo-norbornyl)adenosine], the “activity and synergy of adenosine receptor agonists” value (“activity and synergy” below) in assay [1] was “active and synergistic”.
For the molecule `CNC(=O)[C@H]1O[C@@H](n2cnc3c(NCc4cccc(I)c4)ncnc32)[C@H](O)[C@@H]1O` [IB-MECA, N^6-(3-iodobenzyl)-5′-N-methylcarboxamidoadenosine], in assay [1], the “activity and synergy” value was “active and synergistic”.
In the case of `CNC(=O)[C@H]1O[C@@H](n2cnc3c(NCc4cccc(I)c4)nc(Cl)nc32)[C@H](O)[C@@H]1O` [chloro-IB-MECA, 2-chloro-N^6-(3-iodobenzyl)-5′-N-methylcarboxamidoadenosine], the “activity and synergy” value in assay [1] was “active and synergistic”.
In the case of `CCNC(=O)[C@H]1O[C@@H](n2cnc3c(N)nc(NCCc4ccc(CCC(=O)O)cc4)nc32)[C@H](O)[C@@H]1O` [CGS-21680, 2-(4-(2-carboxyethyl)phenethylamino)-5′-N-ethylcarboxamidoadenosine], the Induction of apoptosis in assay [2] (CGS-21680 0.05 μM, Roflumilast 0 μM (Table 50)) was 12; in assay [2] (CGS-21680 0.05 μM, Trequinsin 0 μM (Table 51)), 16; in assay [2] (CGS-21680 0.15 μM, Roflumilast 0 μM (Table 50)), 15; in assay [2] (CGS-21680 0.15 μM, Trequinsin 0 μM (Table 51)) it was 16; in assay [2] (CGS-21680 […], Roflumilast 0 μM (Table 50)) it was 25; in assay [2] (CGS-21680 […], Trequinsin 0 μM (Table 51)) it was 27.
As to `OC[C@H]1O[C@@H](n2cnc3c(NC4CCCC4)nc(Cl)nc32)[C@H](O)[C@@H]1O` [2-chloro-N-6-cyclopentyladenosine, 2-chloro-N^6-cyclopentyladenosine], the “activity and synergy” value in assay [1] is “active and synergistic”.
Turning to `COc1ccc(Cc2nn3c([C@@H](CCCc4ccccc4)[C@@H](C)O)nc(C)c3c(=O)[nH]2)cc1OC` [BAY 60-7550, 2-(3,4-dimethoxybenzyl)-7-[(1R)-1-[(1R)-1-hydroxyethyl]-4-phenylbutyl]-5-methylimidazo[5,1-f][1,2,4]triazin-4(3H)-one], the “synergy (score), PDEi × HE-NECA” value in assay [3] (6×6 cross of PDE inhibitor or PDE inhibitor mixture with HE-NECA, H929) worked out at 1.68; in assay [5] (6×6 cross of PDE inhibitor or PDE inhibitor mixture with HE-NECA, MM.1S), 1.64. For the same molecule, the synergy score in assay [3] (PDE inhibitor crossed with (S) ENBA, H929) stood at 1.07; in assay [3] (PDE inhibitor crossed with ADAC, H929) it was 0.55; in assay [3] (PDE inhibitor crossed with Chloro-IB-MECA, H929) it was 0.74; in assay [3] (PDE inhibitor crossed with HE-NECA, H929), 3.71; in assay [3] (in combination with adenosine receptor agonist CGS-21680, H929) it was 3.86; in assay [3] (in combination with adenosine receptor agonist HE-NECA, H929), 1.933. For the same molecule, the synergy score in assay [3] (in combination with adenosine receptor agonist regadenoson, H929) came out at 1.89; in assay [4] (in combination with adenosine receptor agonist CGS-21680, RPMI 8226), 0.76; in assay [4] (in combination with adenosine receptor agonist HE-NECA, RPMI-8226), 0.7784; in assay [4] (in combination with adenosine receptor agonist regadenoson, RPMI 8226) it was 0.98; in assay [5] (PDE inhibitor crossed with (S) ENBA, MM.1S), 2.84; in assay [5] (PDE inhibitor crossed with ADAC, MM.1S) it was 0.85. Moreover, the synergy score in assay [5] (PDE inhibitor crossed with Chloro-IB-MECA, MM.1S) is on record as 0.86; in assay [5] (PDE inhibitor crossed with HE-NECA, MM.1S), 3.8; in assay [5] (in combination with adenosine receptor agonist CGS-21680, MM.1S) it was 3.85; in assay [5] (in combination with adenosine receptor agonist HE-NECA, MM.1S) it was 2.364; in assay [5] (in combination with adenosine receptor agonist regadenoson, MM.1S), 0.91; in assay [6] (in combination with adenosine receptor agonist CGS-21680, MM.1R), 4.59. In assay [6] (in combination with adenosine receptor agonist regadenoson, MM.1R), the synergy score amounted to 3.07. In addition, in assay [5] (Homo sapiens, MM1.S, BAY 60-7550 0.7375 μM, HE-NECA conc. (nM), read-out: Percent inhibition of ATP in MM.1S cells), the inhibition at 0.7375 µM is -9.4%. For the same molecule, the inhibition at 1.475 µM in assay [5] (Homo sapiens, MM1.S, BAY 60-7550 1.475 μM, HE-NECA conc. (nM), read-out: Percent inhibition of ATP in MM.1S cells) is -3.6%. In addition, the inhibition at 2.95 µM in assay [5] (Homo sapiens, MM1.S, BAY 60-7550 2.95 μM, HE-NECA conc. (nM), read-out: Percent inhibition of ATP in MM.1S cells) is 4%. In addition, the inhibition at 5.9 µM in assay [5] (Homo sapiens, MM1.S, BAY 60-7550 5.9 μM, HE-NECA conc. (nM), read-out: Percent inhibition of ATP in MM.1S cells) was 6%. In addition, the inhibition at 11.8 µM in assay [5] (Homo sapiens, MM1.S, BAY 60-7550 11.8 μM, HE-NECA conc. (nM), read-out: Percent inhibition of ATP in MM.1S cells) is 13%. In addition, in assay [7], the “PDE inhibitors (specificity)” value is “BAY 60-7550 (2)”.

For orientation: inhibition means the drop in the measured response relative to a control, in per cent.
